Laboratory results published in ChEMBL document CHEMBL2448688, “Selection and optimization of hits from a high-throughput phenotypic screen against Trypanosoma cruzi. Exported from HEOS 25-Oct-2013. See also related datasets CHEMBL3137440 and CHEMBL3137386”.
Converted amounts (≈) assume the structure as drawn. “And” between values parts separate entries of the source, which are not always exact repeats. Identical values can stand only once.

Tests used:
in vitro [1] = conditions: rat, hepatocytes
in vitro [2] = conditions: human, microsomes, t (1 / 2)
Cytochrome P450 1A2 = molecular target: T1, Cytochrome P450 1A2 (Homo sapiens, UniProt P05177)
T1 sequence (P05177 whole entry): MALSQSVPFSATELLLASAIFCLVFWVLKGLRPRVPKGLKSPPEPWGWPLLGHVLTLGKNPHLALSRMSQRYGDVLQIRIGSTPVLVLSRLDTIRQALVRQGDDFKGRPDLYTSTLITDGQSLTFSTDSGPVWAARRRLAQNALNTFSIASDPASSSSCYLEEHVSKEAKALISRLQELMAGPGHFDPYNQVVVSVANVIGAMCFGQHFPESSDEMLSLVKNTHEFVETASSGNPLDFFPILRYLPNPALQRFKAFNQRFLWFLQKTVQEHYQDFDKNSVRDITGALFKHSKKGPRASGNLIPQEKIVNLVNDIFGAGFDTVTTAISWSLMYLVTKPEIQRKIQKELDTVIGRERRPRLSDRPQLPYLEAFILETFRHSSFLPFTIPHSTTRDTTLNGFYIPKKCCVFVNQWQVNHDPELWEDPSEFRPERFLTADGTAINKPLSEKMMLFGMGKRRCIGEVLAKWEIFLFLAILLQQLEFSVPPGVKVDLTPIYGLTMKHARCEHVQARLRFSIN

in vitro [3] = conditions: human, microsomes
[4] = DNDI: Protein binding in mouse plasma
Trypanosoma cruzi [5] = experiment: (§1) DNDI: Chagas in Vitro; assay type: functional, organism-based, Tulahuen C4 (LacZ)
Trypanosoma cruzi [6] = experiment: DNDI: Chagas in vivo at 20 mg/kg, 20 days 2x; assay type: functional, Tulahuen Swiss po
[7] = DNDI: Lipophilicity (gLogD) at pH 3; conditions: buffer, pH 3, logD
Trypanosoma cruzi [8] = experiment: as §1; assay type: functional, Tulahuen C4 (LacZ)
[9] = DNDI: Permeability in CACO-2 cells at pH 7.4 (A to B); assay type: ADME, cell-based; conditions: human, Caco-2, pH 7.4
Cytochrome P450 2C19 = Cytochrome P450 2C19 (Homo sapiens, UniProt P33261)
Sequence of Cytochrome P450 2C19 (P33261 whole entry): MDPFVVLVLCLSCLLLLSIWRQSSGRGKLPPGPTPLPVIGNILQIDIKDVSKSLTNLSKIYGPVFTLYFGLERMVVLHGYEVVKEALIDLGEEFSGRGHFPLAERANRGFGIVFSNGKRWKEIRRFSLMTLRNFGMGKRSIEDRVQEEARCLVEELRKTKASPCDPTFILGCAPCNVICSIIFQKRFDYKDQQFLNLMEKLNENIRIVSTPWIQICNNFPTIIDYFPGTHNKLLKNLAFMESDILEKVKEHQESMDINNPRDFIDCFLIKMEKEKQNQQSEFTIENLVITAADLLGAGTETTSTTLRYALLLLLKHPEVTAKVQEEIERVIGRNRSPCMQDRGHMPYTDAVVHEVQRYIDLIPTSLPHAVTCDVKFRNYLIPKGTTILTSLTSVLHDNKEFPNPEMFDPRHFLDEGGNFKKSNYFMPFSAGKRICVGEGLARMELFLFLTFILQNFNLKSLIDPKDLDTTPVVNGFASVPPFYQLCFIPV

in vitro [10] = conditions: rat, microsomes
[11] = DNDI: Metabolism; assay type: ADME, Microsome; conditions: rat, microsomes
[12] = DNDI: Lipophilicity (gLogD) at pH 7.4; conditions: buffer, pH 7.4, logD
Cytochrome P450 2D6 = Cytochrome P450 2D6 (Homo sapiens, UniProt P10635)
Sequence of Cytochrome P450 2D6 (P10635 whole entry): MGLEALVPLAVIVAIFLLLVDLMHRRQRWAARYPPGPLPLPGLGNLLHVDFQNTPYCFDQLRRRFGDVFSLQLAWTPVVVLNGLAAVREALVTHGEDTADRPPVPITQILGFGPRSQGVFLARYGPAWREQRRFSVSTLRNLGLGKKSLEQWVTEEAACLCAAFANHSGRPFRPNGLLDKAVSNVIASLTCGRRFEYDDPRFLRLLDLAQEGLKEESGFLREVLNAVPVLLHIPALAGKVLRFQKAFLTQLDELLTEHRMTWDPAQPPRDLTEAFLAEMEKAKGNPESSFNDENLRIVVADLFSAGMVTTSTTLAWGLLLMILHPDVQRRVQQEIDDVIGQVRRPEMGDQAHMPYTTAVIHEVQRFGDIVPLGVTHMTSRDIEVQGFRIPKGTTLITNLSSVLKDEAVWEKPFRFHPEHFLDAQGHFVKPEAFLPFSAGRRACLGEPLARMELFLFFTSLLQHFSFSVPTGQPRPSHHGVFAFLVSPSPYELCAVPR

in vitro [13] = conditions: mouse, microsomes
in vitro [14] = conditions: rat, microsomes; remark: listed apart in the source
[15] = tested on: Trypanosoma brucei rhodesiense; experiment: DNDI: HAT in Vitro; assay type: functional, organism-based, ATCC 30027; conditions: Trypanosoma brucei, ATCC 30027
Cytochrome P450 2C9 = Cytochrome P450 2C9 (Homo sapiens, UniProt P11712)
Sequence of Cytochrome P450 2C9 (P11712 whole entry): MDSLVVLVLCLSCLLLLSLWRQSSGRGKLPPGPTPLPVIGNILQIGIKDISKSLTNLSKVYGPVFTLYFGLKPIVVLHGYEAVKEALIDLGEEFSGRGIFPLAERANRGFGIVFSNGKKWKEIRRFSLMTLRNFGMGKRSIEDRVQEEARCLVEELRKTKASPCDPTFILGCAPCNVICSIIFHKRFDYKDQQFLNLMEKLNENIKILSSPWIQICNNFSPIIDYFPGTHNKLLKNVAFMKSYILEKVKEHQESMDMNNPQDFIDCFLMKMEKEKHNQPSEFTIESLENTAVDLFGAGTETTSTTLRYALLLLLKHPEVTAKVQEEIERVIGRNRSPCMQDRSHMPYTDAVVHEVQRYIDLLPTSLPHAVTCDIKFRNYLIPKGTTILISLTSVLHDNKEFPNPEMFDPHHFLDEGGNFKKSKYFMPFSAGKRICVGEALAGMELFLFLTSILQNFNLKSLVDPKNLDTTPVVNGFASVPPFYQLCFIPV

[16] = (§2) DNDI: Cytotoxicity in vitro, against rat skeletal myoblast (L-6) cells; conditions: L-6 cells (skeletal myoblasts), IC50
[17] = DNDI: Protein binding in rat plasma; assay type: ADME, cell-free; conditions: read-out: % bound (converted)
in vitro [18] = conditions: mouse, microsomes; remark: listed apart in the source
[19] = DNDI: Solubility in 0.01M HCl at pH 2 determined by nephelometry; conditions: for solubility kinetic: 0.01M HCl, pH 2, Kinetic
Cytochrome P450 3A4 = Cytochrome P450 3A4 (Homo sapiens, UniProt P08684); experiment: DNDI: Human CYP3A4 inhibition determined using 6b-hydroxylation of testosterone
Sequence of Cytochrome P450 3A4 (P08684 whole entry): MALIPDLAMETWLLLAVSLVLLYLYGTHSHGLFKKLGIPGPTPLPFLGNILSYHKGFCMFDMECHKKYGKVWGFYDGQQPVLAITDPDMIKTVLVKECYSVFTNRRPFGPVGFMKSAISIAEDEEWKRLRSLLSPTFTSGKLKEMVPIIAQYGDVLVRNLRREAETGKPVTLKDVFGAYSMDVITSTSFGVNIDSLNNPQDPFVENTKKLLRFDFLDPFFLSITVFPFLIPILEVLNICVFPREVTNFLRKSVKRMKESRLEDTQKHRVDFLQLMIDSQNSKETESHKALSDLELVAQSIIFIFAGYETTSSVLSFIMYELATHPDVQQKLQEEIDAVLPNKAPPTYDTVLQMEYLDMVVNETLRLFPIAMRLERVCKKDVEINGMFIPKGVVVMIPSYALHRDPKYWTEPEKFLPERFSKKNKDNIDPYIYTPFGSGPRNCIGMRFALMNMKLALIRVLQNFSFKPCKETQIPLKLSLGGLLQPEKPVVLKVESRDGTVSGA

in vitro [20] = conditions: rat, microsomes; remark: listed apart in the source
in vitro [21] = conditions: human, microsomes, EH
L6 = experiment: as §2; conditions: L-6 cells (skeletal myoblasts)
Trypanosoma cruzi [22] = experiment: DNDI: Chagas in vivo at 20 mg/kg, 20 days 1x; assay type: functional, Tulahuen Swiss po
in vitro [23] = conditions: mouse, microsomes; remark: listed apart in the source
in vitro [24] = conditions: rat, hepatocytes; remark: listed apart in the source
Trypanosoma cruzi [25] = experiment: DNDI: Chagas in vivo at 50 mg/kg, 20 days 1x; assay type: functional, Tulahuen Swiss po
[26] = DNDI: Solubility in phosphate buffer at pH 6.5 determined by nephelometry; conditions: for solubility kinetic: phosphate buffer, pH 6.5, Kinetic
[27] = human, microsomes
[28] = human, microsomes; remark: listed apart in the source
[29] = human, microsomes; remark: listed apart in the source
CYP3A4 [30] = molecular target: T2, CYP3A4 (Homo sapiens, UniProt P08684); experiment: DNDI: Human CYP3A4 inhibition at 1 uM determined using 6b-hydroxylation of testosterone; conditions: probe testosterone (6b-hydroxylation)
T2 sequence (P08684 whole entry): as above

CYP3A4 [31] = molecular target: T2, CYP3A4; experiment: DNDI: Human CYP3A4 inhibition at 10 uM determined using 6b-hydroxylation of testosterone; conditions: probe testosterone (6b-hydroxylation)
[32] = Trypanosoma cruzi, Tulahuen C4 (LacZ)

| Structure (SMILES) | CLhep predicted (in vitro [1]) [mL/min/kg] | half-life (in vitro [2]) [min] | microsomal CLint (in vitro [3]) [µL/min/mg] | IC50 (Trypanosoma cruzi [5]; [32]) [µM] | chromatographic logD [7] | IC90 (Trypanosoma cruzi [8]) | half-life (in vitro [10]) [min] | CLblood [11] [mL/min/kg] | chromatographic logD [12] | half-life (in vitro [13]) [min] | microsomal CLint (in vitro [14]) [µL/min/mg] | microsomal CLint (in vitro [18]) [µL/min/mg] | solubility kinetic [19] [µg/mL] | IC50 (Cytochrome P450 3A4) [µM] | hepatic extraction ratio (in vitro [21]) | IC90 (Trypanosoma cruzi [8]; [32]) [µM] | solubility kinetic [26] [µg/mL] | IC50 [16] [µM] | other results |
| --- | --- | --- | --- | --- | --- | --- | --- | --- | --- | --- | --- | --- | --- | --- | --- | --- | --- | --- | --- |
| N#Cc1ccc(-n2ccnc2)c(NC(=O)c2cnc(-c3ccccc3)s2)c1 | 17.2 | 152 | 11 | 0.006 | 2.1 | 0.0205 µM and 0.047 µM and > 0.1 µM | 73 | 25 | 2.8 | 56 | 24 | 31 | > 100 |  |  |  |  | > 100 | IC50 (Cytochrome P450 1A2): > 20 µM; fraction unbound [4]: 0.064; IC50 (Trypanosoma cruzi [5]): 0.0115 µM and 0.0068 µM and 0.007 µM; PCR cure rate (Trypanosoma cruzi [6]): 0%; Parasitemia clearance after immunosuppression (Trypanosoma cruzi [6]): 0%; Parasitemia clearance after treatment (Trypanosoma cruzi [6]): 100%; Papp A→B [9]: 82 ×10⁻⁶ cm/s; IC50 (Cytochrome P450 2C19): 15.9 µM; IC50 (Cytochrome P450 2D6): 2.7 µM; IC50 [15]: > 10 µM; IC50 (Cytochrome P450 2C9): > 20 µM; fraction unbound [17]: 0.043 |
| CO/N=C(\C)c1ccc(-n2ccnc2)c(NC(=O)c2ccc(-c3ccccn3)s2)c1 |  | 57 | 30 |  | 2.3 | > 0.1 µM and 0.0128 µM | 27 | 42 | 3.1 |  | 64 |  | > 100 | 2 | 0.54 |  |  | 65.6 | hepatic extraction ratio (in vitro [20]): 0.62; IC50 (L6): 72.5 µM |
| CO/N=C(\C)c1ccc(-n2ccnc2)c(NC(=O)c2cnn(-c3ccccn3)c2)c1 | 34.3 | 108 | 16 | 0.0067 |  | 0.014 µM | 64 |  |  | 21 | 27 | 83 |  | 1.4 | 0.38 | 0.016 |  | > 100 | hepatic extraction ratio (in vitro [20]): 0.47; PCR cure rate (Trypanosoma cruzi [22]): 0%; Parasitemia clearance after immunosuppression (Trypanosoma cruzi [22]): 0%; Parasitemia clearance after treatment (Trypanosoma cruzi [22]): 0%; fraction unbound [4]: 0.022; IC50 (Trypanosoma cruzi [5]): 0.006 µM; PCR cure rate (Trypanosoma cruzi [6]): 0%; Parasitemia clearance after immunosuppression (Trypanosoma cruzi [6]): 0%; Parasitemia clearance after treatment (Trypanosoma cruzi [6]): 80%; hepatic extraction ratio (in vitro [23]): 0.78; fraction unbound [17]: 0.008; hepatic extraction ratio (in vitro [24]): 0.51; PCR cure rate (Trypanosoma cruzi [25]): 0%; Parasitemia clearance after immunosuppression (Trypanosoma cruzi [25]): 0%; Parasitemia clearance after treatment (Trypanosoma cruzi [25]): 20% |
| CO/N=C(\C)c1ccc(-n2ccnc2)c(NC(=O)c2cnc(-c3ccccc3)cn2)c1 | 32.3 | 58 | 30 | 0.00253 | 2.6 |  | 35 | 38 | 3.9 | 61 | 50 | 29 | 25 (≈ 60.6 µM) |  |  | 0.0089 | < 1.6 | 58.7 |  |

Continued, in another order:

| CLhep predicted (in vitro [1]) [mL/min/kg] | half-life (in vitro [2]) [min] | microsomal CLint (in vitro [3]) [µL/min/mg] | IC50 (Trypanosoma cruzi [5]; [32]) [µM] | chromatographic logD [7] | IC90 (Trypanosoma cruzi [8]) | half-life (in vitro [10]) [min] | CLblood [11] [mL/min/kg] | chromatographic logD [12] | half-life (in vitro [13]) [min] | microsomal CLint (in vitro [14]) [µL/min/mg] | microsomal CLint (in vitro [18]) [µL/min/mg] | solubility kinetic [19] [µg/mL] | IC50 (Cytochrome P450 3A4) [µM] | hepatic extraction ratio (in vitro [21]) | IC90 (Trypanosoma cruzi [8]; [32]) [µM] | solubility kinetic [26] [µg/mL] | Structure (SMILES) | IC50 [16] [µM] | other results |
| --- | --- | --- | --- | --- | --- | --- | --- | --- | --- | --- | --- | --- | --- | --- | --- | --- | --- | --- | --- |
|  | 17.6 | 98.3 |  | 2.18 |  |  |  | > 3.94 |  |  |  | 71 (≈ 198 µM) |  |  |  | 11.9 (≈ 33 µM) | CC(=O)N(Cc1cccnc1)c1ccc(-c2nc3ccccc3s2)cc1 |  | CLint in vitro [27]: 72 µL/min/mg; t (1 / 2) [28]: 24 min; EH [29]: 0.74 none |
|  |  |  | 0.049 |  |  |  |  | 2.29 |  |  |  | 57.5 |  |  | 0.125 | 53 | Cl.NCC(=O)N(Cc1cccnc1)c1cc(F)cc(-c2nc3ccccc3s2)c1 | > 100 | Kinetic ([26]; buffer, pH 6.5): > 100 µg/mL; CLint in vitro [27]: 66 µL/min/mg and 30 µL/min/mg; t (1 / 2) [28]: 58 min and 26.3 min; EH [29]: 0.54 none; Kinetic ([19]; buffer, pH 2): > 100 µg/mL |
|  | 123 | 14 | 0.0135 | 1.6 |  |  |  | 2.1 | 81 |  | 21 | > 100 | > 10 | 0.35 | 0.027 |  | CC(=O)N(Cc1c[nH]cn1)c1ccc(-c2nc3ccccc3s2)cc1 | 63.4 | inhibition at 1 µM (CYP3A4 [30]): 0.3%; hepatic extraction ratio (in vitro [23]): 0.32; inhibition at 10 µM (CYP3A4 [31]): 28.1% |
